Data from PubChem BioAssay (NCI).
Where “and” joins values, the source holds several entries; their conditions need not be identical. Equal values may be shown once.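 Briefly, cells in 96-well plates were exposed to five compound concentrations for 48 h, and endpoints were estimated by linear interpolation. GI50: concentration for 50% inhibition of growth. The concentration for full growth arrest is given as TGI.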

The compounds below were run on A498 renal (assay: inhibition of tumour cell growth, NCI panel, 48 h).

Row | SMILES | TGI | GI50
1 | COc1ccc(/C(Cl)=C(\C=O)c2ccc([N+](=O)[O-])cc2)cc1 | 74.1 µM | 
2 | C=C(C)C1CCC2(C(=O)O)CCC3(C)C(CCC4C5(C)CCC(OC(=O)NCc6ccccc6)C(C)(C)C5CCC43C)C12 (configuration not stated) | > 100 µM | 2.57 µM
3 | O=C(/C=C/c1c(O)ccc2ccccc12)c1ccccc1 | > 100 µM | 
4 | Cc1nc2ccccc2c(=O)n1-c1ccccc1F | > 100 µM | 
5 | C=C[C@H]1C[C@@H]2C[C@@H]3[C@H]4C/C=C\C(=O)NCCCC5NC(=O)C(=C(O)/C=C/[C@@H]4CC(=O)[C@H]3[C@@H]2[C@H]1C)C5=O (some centres not stated) | 0.369 µM | 0.175 µM
6 | Fc1ccc(C2SCc3nc4ccccc4n32)cc1Cl (configuration not stated) | > 100 µM | 
7 | CC1=N/C(=C\c2cccc([N+](=O)[O-])c2)C(=O)O1 | > 100 µM | 
8 | Cn1c2ccccc2c2c3[nH]c(=O)[nH]c(=O)c3c3c4ccccc4n(C)c3c21 | 4.37 µM | 0.0475 µM
9 | CC1(C)N=C(N)N=C(N)N1c1ccc(OCc2ccc(S(=O)(=O)F)c(Cl)c2)c(Cl)c1 | > 100 µM | > 100 µM
10 | CO[C@H]1C=C[C@@]23c4cc5c(cc4CO[C@]2(O)CN(C)[C@H]3C1)OCO5 | > 100 µM | 
11 | CC(C)N1CN(C(C(=O)N[C@@H]2C(=O)N3C2SC(C)(C)C3C(=O)O)c2ccccc2)CSC1=S (some centres not stated) | > 100 µM | 
12 | CC(C)c1cc2c(O)c(c1)Cc1cc(C(C)C)cc(c1O)Cc1cc(C(C)C)cc(c1O)Cc1cc(C(C)C)cc(c1O)C2 | > 100 µM | 
13 | COc1ccc(/C=C\c2cc(OC)c(OC)c(OC)c2)cc1OC(=O)NCCN(C)C | 0.0303 µM | 
14 | CCCCOC(=O)NC(=O)c1cn(C2CCCCC2)c(=O)[nH]c1=O | 49 µM | 
15 | CC(C)CCCC(=O)CCCCCCC(=O)CCN(O)C(=O)C(N)CO (configuration not stated) | 31.8 µM | 
16 | COc1cc2c(c(OC)c1)C1(CC(CC#N)C2)SCCS1 (configuration not stated) | > 100 µM | 
17 | CCOC(=O)CCn1[nH]c(=O)c(Cl)c(Cl)c1=O | > 100 µM | 

Row | SMILES | TGI | GI50
18 | COc1ccc(CNc2nc3cc(C(F)(F)F)ccc3nc2C)cc1OC | 83.6 µM | 
19 | C/C=C1/C(=C/c2[nH]c(/C=c3\[nH]/c(=C/C4=NC(=O)C(CC)=C4C)c(C)c3CCC(=O)O)c(CCC(=O)O)c2C)NC(=O)C1C (configuration not stated) | > 150 µg/mL | > 150 µg/mL
20 | N#CCc1ccc(C(C#N)/C(CCCC(=O)Nc2cccc([N+](=O)[O-])c2)=N/NC(N)=S)cc1 (configuration not stated) | > 100 µM | 
21 | COC(C(O)c1ccc2c(c1)OCO2)P(=O)(c1ccccc1)c1ccccc1 (configuration not stated) | > 100 µM | 
22 | NCCCn1c2c(c3ccc([N+](=O)[O-])cc3c1=O)C(=O)c1cc(Br)ccc1-2 | 0.0628 µM | 0.00231 µM
23 | CC(C)c1ccc(C(c2ccc(OCC(=O)O)cc2)c2ccc(C(C)C)cc(=O)c2O)c(O)c(=O)c1 | 69.5 µM | 
24 | N#C/C(=C\c1cc2ccccc2c2ccccc12)c1ccccc1 | 38.3 µM | 
25 | CCOc1ccc2c(c1)[n+]([O-])c(-c1nc3ccccc3s1)c(N)[n+]2[O-] | > 100 µM | 
26 | COc1ccc2c3c(coc13)C(CCC(=O)O)CC2 (configuration not stated) | > 100 µM | 
27 | COC(=O)C12C3C4C1C1C2C3C41NC(=O)c1csc([C@@H](C[C@H](C(C)C)N(C)C(=O)[C@@H](NC(=O)[C@H]2CCCCN2C)C2CC2)OC(C)=O)n1 (some centres not stated) | > 10.6 µM | 0.116 µM
28 | c1cc[c]([Pb]([c]2ccccc2)[c]2ccccc2)cc1 | 46.2 µM | 16 µM
29 | COc1ccc2nc3cc(Cl)ccc3c(NCCN)c2c1 | 23.9 µM | 11.7 µM
30 | CC(=O)N1C/C(=C\c2ccc(N(C)C)cc2)C(=O)/C(=C/c2ccc(N(C)C)cc2)C1 | > 100 µM | 
31 | COc1ccc(C2SCC(=O)N2NC(=O)Nc2c(C)nc3ccccn23)cc1 (configuration not stated) | 60.3 µM | 27.8 µM
32 | COC1=CC2(C=CC1=O)c1cc(OC)c(OC)cc1CCN2C(=O)c1ccccc1 (configuration not stated) | > 100 µM | 
33 | Cc1ccc2[nH]c(C(=O)NN3C(=O)C(C)SC34CCCC(C)C4)c(-c3ccccc3)c2c1 (configuration not stated) | > 100 µM | > 100 µM
34 | Cc1[nH]c2ccccc2c1C1Cc2ccccc2N1C(=O)/C(Cl)=C/c1ccccc1 (configuration not stated) | > 100 µM | 

Each compound was assayed on HOP-92 NSCLC (assay: inhibition of tumour cell growth, NCI panel, 48 h).

Row | SMILES | TGI | GI50
35 | COc1ccc(/C(Cl)=C(\C=O)c2ccc([N+](=O)[O-])cc2)cc1 | 31.2 µM | 
36 | Cc1ccc(-c2cc(=O)c3cc(C)c(C)c(C(=O)O)c3o2)cc1C | > 100 µM | 
37 | O=C(/C=C/c1c(O)ccc2ccccc12)c1ccccc1 | > 100 µM | 
38 | Cc1nc2ccccc2c(=O)n1-c1ccccc1F | > 100 µM | 
39 | C=C[C@H]1C[C@@H]2C[C@@H]3[C@H]4C/C=C\C(=O)NCCCC5NC(=O)C(=C(O)/C=C/[C@@H]4CC(=O)[C@H]3[C@@H]2[C@H]1C)C5=O (some centres not stated) | 0.539 µM | 0.218 µM
40 | Fc1ccc(C2SCc3nc4ccccc4n32)cc1Cl (configuration not stated) | 30.1 µM | 
41 | CC1=N/C(=C\c2cccc([N+](=O)[O-])c2)C(=O)O1 | > 100 µM | 
42 | Cn1c2ccccc2c2c3[nH]c(=O)[nH]c(=O)c3c3c4ccccc4n(C)c3c21 | 14.6 µM | 3.4 µM
43 | CO[C@H]1C=C[C@@]23c4cc5c(cc4CO[C@]2(O)CN(C)[C@H]3C1)OCO5 | > 100 µM | 
44 | CC(C)N1CN(C(C(=O)N[C@@H]2C(=O)N3C2SC(C)(C)C3C(=O)O)c2ccccc2)CSC1=S (some centres not stated) | > 100 µM | 
45 | CC(C)c1cc2c(O)c(c1)Cc1cc(C(C)C)cc(c1O)Cc1cc(C(C)C)cc(c1O)Cc1cc(C(C)C)cc(c1O)C2 | > 100 µM | 
46 | COc1ccc(/C=C\c2cc(OC)c(OC)c(OC)c2)cc1OC(=O)NCCN(C)C | 0.00065 µM and < 0.0393 µM | 
47 | CCCCOC(=O)NC(=O)c1cn(C2CCCCC2)c(=O)[nH]c1=O | 55.1 µM | 
48 | CCOC(=O)CCn1[nH]c(=O)c(Cl)c(Cl)c1=O | > 100 µM | 
49 | COc1cc2c(c(OC)c1OC)C(=O)[C@@H]1c3ccc([N+](=O)[O-])cc3C(=O)N(CCCBr)[C@H]21 | 78.6 µM | 16.1 µM
50 | C/C=C1/C(=C/c2[nH]c(/C=c3\[nH]/c(=C/C4=NC(=O)C(CC)=C4C)c(C)c3CCC(=O)O)c(CCC(=O)O)c2C)NC(=O)C1C (configuration not stated) | > 150 µg/mL | 103 µg/mL
51 | N#CCc1ccc(C(C#N)/C(CCCC(=O)Nc2cccc([N+](=O)[O-])c2)=N/NC(N)=S)cc1 (configuration not stated) | > 100 µM | 
52 | COC(C(O)c1ccc2c(c1)OCO2)P(=O)(c1ccccc1)c1ccccc1 (configuration not stated) | > 100 µM | 
53 | CC(C)c1ccc(C(c2ccc(OCC(=O)O)cc2)c2ccc(C(C)C)cc(=O)c2O)c(O)c(=O)c1 | 0.956 µM | 
54 | N#C/C(=C\c1cc2ccccc2c2ccccc12)c1ccccc1 | > 71.7 µM | 
55 | CCOc1ccc2c(c1)[n+]([O-])c(-c1nc3ccccc3s1)c(N)[n+]2[O-] | 70.1 µM | 
56 | c1cc[c]([Pb]([c]2ccccc2)[c]2ccccc2)cc1 | 47.8 µM | 10.7 µM
57 | COc1ccc2nc3cc(Cl)ccc3c(NCCN)c2c1 | 2.95 µM | 1.47 µM
58 | CC(=O)N1C/C(=C\c2ccc(N(C)C)cc2)C(=O)/C(=C/c2ccc(N(C)C)cc2)C1 | > 100 µM | 
59 | CCC(=O)c1c(C(F)(F)F)n([O-])c2ccc(C)cc2[n+]1=O | > 50 µM | 8.69 µM
60 | O=C(O)[C@@H]1CCCCN1Cc1cc2cc3c(cc2c2cc(OCc4ccccc4)ccc12)OCO3 | 41.5 µM | 14.7 µM
61 | COc1ccc(C2SCC(=O)N2NC(=O)Nc2c(C)nc3ccccn23)cc1 (configuration not stated) | 37.5 µM | 16.6 µM
62 | COC1=CC2(C=CC1=O)c1cc(OC)c(OC)cc1CCN2C(=O)c1ccccc1 (configuration not stated) | > 100 µM | 
63 | Cc1ccc2[nH]c(C(=O)NN3C(=O)C(C)SC34CCCC(C)C4)c(-c3ccccc3)c2c1 (configuration not stated) | > 100 µM | > 100 µM
64 | Cc1[nH]c2ccccc2c1C1Cc2ccccc2N1C(=O)/C(Cl)=C/c1ccccc1 (configuration not stated) | > 100 µM | 

Each compound was assayed on HS 578T breast (assay: inhibition of tumour cell growth, NCI panel, 48 h).

Row | SMILES | GI50 | TGI
65 | C=C(C)C1CCC2(C(=O)O)CCC3(C)C(CCC4C5(C)CCC(OC(=O)NCc6ccccc6)C(C)(C)C5CCC43C)C12 (configuration not stated) | 3.62 µM | > 100 µM
66 | C=C[C@H]1C[C@@H]2C[C@@H]3[C@H]4C/C=C\C(=O)NCCCC5NC(=O)C(=C(O)/C=C/[C@@H]4CC(=O)[C@H]3[C@@H]2[C@H]1C)C5=O (some centres not stated) | 0.191 µM | 0.423 µM
67 | Cn1c2ccccc2c2c3[nH]c(=O)[nH]c(=O)c3c3c4ccccc4n(C)c3c21 | 2.44 µM | 8.21 µM
68 | CO[C@H]1C=C[C@@]23c4cc5c(cc4CO[C@]2(O)CN(C)[C@H]3C1)OCO5 |  | > 100 µM
69 | CC(C)CCCC(=O)CCCCCCC(=O)CCN(O)C(=O)C(N)CO (configuration not stated) |  | 68.8 µM
70 | COc1cc2c(c(OC)c1OC)C(=O)[C@@H]1c3ccc([N+](=O)[O-])cc3C(=O)N(CCCBr)[C@H]21 | 5.71 µM | 35.5 µM
71 | NCCCn1c2c(c3ccc([N+](=O)[O-])cc3c1=O)C(=O)c1cc(Br)ccc1-2 | 0.105 µM | 
72 | COC(=O)C12C3C4C1C1C2C3C41NC(=O)c1csc([C@@H](C[C@H](C(C)C)N(C)C(=O)[C@@H](NC(=O)[C@H]2CCCCN2C)C2CC2)OC(C)=O)n1 (some centres not stated) | 0.00773 µM | > 33.3 µM
73 | O=C(O)[C@@H]1CCCCN1Cc1cc2cc3c(cc2c2cc(OCc4ccccc4)ccc12)OCO3 | 2.29 µM | 6.94 µM
74 | COc1ccc(C2SCC(=O)N2NC(=O)Nc2c(C)nc3ccccn23)cc1 (configuration not stated) | 41.3 µM | > 100 µM
